The record followed here is ChEMBL document CHEMBL1130960, “QSAR study of the peptidic fibrinogen inhibitors FK633, FR158999 and related derivatives, using a novel and useful hydrophobic descriptor (logPmw)” (Bioorg Med Chem Lett, 1998).

The assay in a line: Inhibition of binding to fibrinogen receptor.
As to `COc1ccc(CC(NC(=O)C(CC(=O)O)NC(=O)CCCOc2ccc(C(=N)N)cc2)C(=O)O)cc1` (stereo unspecified), the “Log IC50” value is reported as -6.89.

As to `COC(=O)C(Cc1ccc(O)cc1)NC(=O)C(CC(=O)O)NC(=O)CCCCOc1ccc(C(=N)N)cc1` (stereo unspecified), the “Log IC50” value is -5.35.

Consider `Cc1ccc(OCCNC(=O)C(CC(=O)O)NC(=O)CCCOc2ccc(C(=N)N)cc2)cc1C` (stereo unspecified), for which the “Log IC50” value was -6.3.

As for `COc1ccc(CC(NC(=O)C(CC(=O)O)NC(=O)CCCCOc2ccc(C(=N)N)cc2)C(=O)O)cc1` (stereo unspecified), the “Log IC50” value was -6.57.

In the case of `N=C(N)c1ccc(OCCCC(=O)NC(CC(=O)O)C(=O)NC(Cc2ccc(O)cc2)C(=O)O)cc1` (stereo unspecified), the “Log IC50” value was -6.8.

`CC(C)C(NC(=O)C(CC(=O)O)NC(=O)CCCOc1ccc(C(=N)N)cc1)C(=O)O` (stereo unspecified): the “Log IC50” value is given as -6.96.

With `N=C(N)c1ccc(OCCCCC(=O)NC(CC(=O)O)C(=O)NC(Cc2ccc(O)cc2)C(=O)O)cc1` (stereo unspecified), the “Log IC50” value was -6.19.

As to `CCN(CC)C(=O)[C@@H](NC(=O)[C@H](CC(=O)O)NC(=O)CCCOc1ccc(C(=N)N)cc1)C(C)C`, the “Log IC50” value is -6.6.

With `CC(C)C(C)NC(=O)C(CC(=O)O)NC(=O)CCCOc1ccc(C(=N)N)cc1` (stereo unspecified), the “Log IC50” value is -5.9.

On to `CC(C)c1ccc(OCCNC(=O)C(CC(=O)O)NC(=O)CCCOc2ccc(C(=N)N)cc2)cc1` (stereo unspecified), for which the “Log IC50” value is recorded as -6.4.

On to `CC(C)[C@H](NC(=O)[C@H](CC(=O)O)NC(=O)CCCOc1ccc(C(=N)N)cc1)C(N)=O`, for which the “Log IC50” value is on record as -6.2.

For the compound `CC(C)[C@H](NC(=O)[C@H](CC(=O)O)NC(=O)CCCOc1ccc(C(=N)N)cc1)C(=O)NC1CCCCC1`, the “Log IC50” value is recorded as -6.7.

On to `CC(C)C(NC(=O)C(CC(=O)O)NC(=O)CCCCOc1ccc(C(=N)N)cc1)C(=O)O` (stereo unspecified), for which the “Log IC50” value was -6.64.

Turning to `CC(C)[C@H](NC(=O)[C@H](CC(=O)O)NC(=O)CCCOc1ccc(C(=N)N)cc1)C(=O)N1CCS(=O)(=O)CC1`, the “Log IC50” value is -7.5.

As for `CC(C)(C)CC(NC(=O)C(CC(=O)O)NC(=O)CCCOc1ccc(C(=N)N)cc1)C(=O)O` (stereo unspecified), the “Log IC50” value was -6.64.

For `CC[C@H](C)[C@H](NC(=O)[C@H](CC(=O)O)NC(=O)CCCOc1ccc(C(=N)N)cc1)C(=O)O`, the “Log IC50” value is given as -6.85.

As for `CCCCC(NC(=O)C(CC(=O)O)NC(=O)CCCOc1ccc(C(=N)N)cc1)C(=O)O` (stereo unspecified), the “Log IC50” value is reported as -7.12.

Turning to `CC(C)CC(NC(=O)C(CC(=O)O)NC(=O)CCCOc1ccc(C(=N)N)cc1)C(=O)O` (stereo unspecified), the “Log IC50” value is reported as -6.87.

On to `CC(C)[C@H](NC(=O)[C@H](CC(=O)O)NC(=O)CCCOc1ccc(C(=N)N)cc1)C(=O)N1CCOCC1`, for which the “Log IC50” value is on record as -7.1.

For the compound `CCc1ccc(OCCNC(=O)C(CC(=O)O)NC(=O)CCCOc2ccc(C(=N)N)cc2)cc1` (stereo unspecified), the “Log IC50” value is recorded as -6.5.

For the compound `N=C(N)c1ccc(OCCCCC(=O)NC(CC(=O)O)C(=O)NC(CO)C(=O)O)cc1` (stereo unspecified), the “Log IC50” value was -4.92.
